This assay relates to MDA-MB-435 tumor-bearing mice. Kind of assay: Small animal PET, organ uptake in orthotopic MDA-MB-435 tumor-bearing mice. It counts as in vivo, athymic nude mice. The following applies: co-injection with excess (0.5 μmol, 300 μg) c(RGDfk), 0.5 h.

As to “4-^18F-fluoro-3-trifluoromethylbenzoyl-E[c(RGDfk)2] [^18F-4]”, the “reduction of tumor uptake by blocking” value came out at 82%.

Values taken from publication PMC3059404 (Bioconjugate chemistry, 2011).
